Reference: patent US20260263445A1, “TGF-BETA INHIBITOR FOR USE IN THE TREATMENT OF DEDIFFERENTIATED LIPOSARCOMA” (Institut Curie, priority 2023, published 2026)

B1: bintrafusp alfa: Bifunctional Fusion Protein Targeting TGF-β and PD-L1; CAS 1918149-01-5 (antibody, chains of the INN, looked up, V domains shown)
VH: EVQLLESGGGLVQPGGSLRLSCAASGFTFSSYIMMWVRQAPGKGLEWVSSIYPSGGITFYADTVKGRFTISRDNSKNTLYLQMNSLRAEDTAVYYCARIKLGTVTTVDYWGQGTLVTVSS
VL: QSALTQPASVSGSPGQSITISCTGTSSDVGGYNYVSWYQQHPGKAPKLMIYDVSNRPSGVSNRFSGSKSGNTASLTISGLQAEDEADYYCSSYTSSSTRVFGTGTKVTVL

Assays:
[1] = tested on: DDLPS PDX Sil10AS; test: Nude mice engrafted with DDLPS PDX Sil10AS: tumor growth and differentiation; type: in vivo
Experimental: 7 nude mice engrafted with the DDLPS PDX Sil10AS are treated with TGFβ inhibitor galunisertib. The tumor growth rate is compared to a control group of 7 nude mice engrafted with the same PDX model and treated with a vehicle. At the end of the experiment, tumor differentiation are assessed at the microscopic and transcriptomic level.

[2] = tested on: DD tumor cells from 2 DDLPS PDX models; test: Ex vivo adipocytic differentiation of DD tumor cells from DDLPS PDX models; type: cell-based, human; conditions: ex vivo/in vitro, transcriptomic and phenotypic level
Text: DDLPS tumor cells keep the multipotent properties of their progenitors. […] Adipocytic differentiation is confirmed with the detection of green vacuoles (Bodipy staining) and osteogenic differentiation by red staining after Alizarin red treatment (Data not shown).
(§1) The inventors also investigated the role of TGFβ in adipocytic differentiation in DDLPS, particularly advanced DDLPS using several TGFβ inhibitors, of a different mode of action and of different nature, such as compounds selected from the group consisting of TGFβ receptor R1/R2 inhibitors LY2109761 and LY364947; monoclonal anti-TGFβ antibodies BX-BE0057 and fresolimumab; TGFβ ligand trap such as luspatercept (a fusion protein that traps TGFβ ligands preventing them from binding to Type II TGFβ receptors) and bintrafusp alfa (a Bifunctional Fusion Protein Targeting TGF-β and PD-L1) and TQB2858 (an anti-TGF-β/PD-L1 antibody).

[3] = tested on: TGFβ pathway; test: Ex vivo inhibition of TGFβ pathway in DDLPS PDX Sil10AS; type: cell-based, human
Text: Tests and assays for determining whether a compound is a TGFβ inhibitor are well known by the skilled person in the art such as described in Frey et al., 2022; Szymańska et al., 2020. Determining whether a compound is a TGFβ inhibitor may also be performed using by using recombinant TGFβ proteins, competitive binding assays and measuring the binding affinities, measuring activated TGF-β complexes with other factors to form a serine/threonine kinase complex that binds to TGF-β receptors. […] In another particular embodiment, a TGFβ inhibitor according to the invention is at least as effective as galunisertib and/or as SB431542 in reducing phosphorylation level of SMAD2 and/or SMAD3 protein. Antibodies and/or kits to detect and quantify said phosphorylation level are well known from the skilled in the art and are commercially available.
as §1

Molecule	adipocytic differentiation of DD cells in treated PDX ([1]; DDLPS PDX in nude mice, assessed at the microscopic and transcriptomic level at end of experiment)	tumor growth ([1]; nude mice engrafted with DDLPS PDX Sil10AS, compared with vehicle group)	adipocytic differentiation of DD tumor cells [2]	inhibiting ex vivo TGFβ pathway, compared with galunisertib or SB431542 [3]
Cc1cccc(-c2nn3c(c2-c2ccnc4ccc(C(N)=O)cc24)CCC3)n1 [galunisertib]	restore adipocytic differentiation	reduce tumor growth	restores adipocytic differentiation	–
TGFβ	–	–	prevented	–
c1ccc(-c2nn3c(c2-c2ccnc4cc(OCCN5CCOCC5)ccc24)CCC3)nc1 [LY2109761]	–	–	restore adipocytic differentiation phenotype	at least as effective than galunisertib or SB431542
fresolimumab: monoclonal anti-TGFβ antibody; CAS 948564-73-6	–	–	restore adipocytic differentiation phenotype	at least as effective than galunisertib or SB431542
NC(=O)c1ccc(-c2nc(-c3ccc4c(c3)OCO4)c(-c3ccccn3)[nH]2)cc1 [SB431542]	–	–	restores adipocytic differentiation	–
c1ccc(-c2[nH]ncc2-c2ccnc3ccccc23)nc1 [LY364947]	–	–	restore adipocytic differentiation phenotype	at least as effective than galunisertib or SB431542
B1	–	–	restore adipocytic differentiation phenotype	at least as effective than galunisertib or SB431542
